From patent US20090093473A1, “Spiro-benzimidazoles as inhibitors of gastric acid secretion” (priority 2005, published 2009)

Columns and labels:
[1] = test system: pentagastrin-stimulated acid secretion of the perfused rat stomach; experiment: Secretion-inhibiting action on the perfused rat stomach (pentagastrin-stimulated acid secretion); assay type: in vivo; details: intraduodenal, anesthetized CD rat, dose 1 μmol/kg i.d.
From the text: Testing of the Secretion-Inhibiting Action on the Perfused Rat Stomach
In Table A which follows, the influence of the compounds of the formula 1 according to the invention on the pentagastrin-stimulated acid secretion of the perfused rat stomach after intraduodenal administration in vivo is shown.
The abdomen of anesthetized rats (CD rat, female, 200-250 g; 1.5 g/kg i.m. urethane) was opened after tracheotomy by a median upper abdominal incision and a PVC catheter was fixed transorally in the esophagus and another via the pylorus such that the ends of the tubes just projected into the gastric lumen. The catheter leading from the pylorus led outward into the right abdominal wall through a side opening.
After thorough rinsing (about 50-100 ml), warm (37° C.) physiological NaCl solution was conbinuously passed through the stomach (0.5 ml/min, pH 6.8-6.9; Braun-Unita I). The pH (pH meter 632, glass electrode EA 147; φ=5 mm, Metrohm) and, by titration with a freshly prepared 0.01N NaOH solution to pH 7 (Dosimat 665 Metrohm), the secreted HCl were determined in the effluent in each case collected at an interval of 15 minutes.
The gastric secretion was stimulated by continuous infusion of 1 μg/kg (=1.65 mllh) of i.v. pentagastrin (left femoral vein) about 30 min after the end of the operation (i.e. after determination of 2 preliminary fractions). The substances to be tested were administered intraduodenally in a 2.5 ml/kg liquid volume 60 min after the start of the continuous pentagastrin infusion. The body temperature of the animals was kept at a constant 37.8-38° C. by infrared irradiation and heat pads (automatic, stepless control by means of a rectal temperature sensor).

SMILES | melting point [°C] | inhibition in vivo at 1 µmol/kg [1] [%]
Cc1nc2c3c(c(C(=O)N4CC(O)C4)cc2n1C)CCC1(Cc2ccccc2C1)N3 [Example 13, 1-[(2,3-dimethyl-1′,3,3′,6,7,9-hexahydrospiro[imidazo[4,5-h]quinoline-8,2′-inden]-5-yl)-carbonyl]azetidin-3-ol] | 171 to 172 | 
CCOCCNC(=O)c1cc2c(nc(C)n2C)c2c1CCC1(Cc3ccccc3C1)N2 [Example 31, N-(2-ethoxyethyl)-2,3-dimethyl-1′,3,3′,6,7,9-hexahydrospiro[imidazo[4,5-h]quinoline-8,2′-indene]-5-carboxamide] | 180 to 181 | 
Cc1nc2c3c(c(C(=O)N4CCC4)cc2n1C)CCC1(Cc2ccccc2C1)N3 [Example 23, 5-(azetidin-1-ylcarbonyl)-2,3-dimethyl-1′,3,3′,6,7,9-hexahydrospiro[imidazo[4,5-h]-quinoline-8,2′-indene]] | 222 to 223 | > 80
COCCNC(=O)c1cc2c(nc(C)n2C)c2c1CCC1(Cc3ccccc3C1)N2 [Example 16, N-(2-methoxyethyl)-2,3-dimethyl-1′,3,3′,6,7,9-hexahydrospiro[imidazo[4,5-h]quinoline-8,2′-indene]-5-carboxamide] | 186 to 187 | > 80
Cc1nc2c3c(c(C(=O)NC4CC4)cc2n1C)CCC1(Cc2ccccc2C1)N3.O=C(O)C(=O)O [Example 36, N-cyclopropyl-2,3-dimethyl-1′,3,3′,6,7,9-hexahydrospiro[imidazo[4,5-h]quinoline-8,2′-indene]-5-carboxamide oxalate] | 242 to 243 | 
CCOC(=O)c1cc2c(nc(C)n2C)c2c1CCC1(Cc3ccccc3C1)N2 [Example 1, Ethyl 2,3-dimethyl-1′,3,3′,6,7,9-hexahydrospiro[imidazo[4,5-h]quinoline-8,2′-indene]-5-carboxylate] | 167 to 168 | 
Cc1nc2c3c(c(C(=O)NCCO)cc2n1C)CCC1(Cc2ccccc2C1)N3 [Example 17, N-(2-hydroxyethyl)-2,3-dimethyl-1′,3,3′,6,7,9-hexahydrospiro[imidazo[4,5-h]quinoline-8,2′-indene]-5-carboxamide] | 167 to 168 | 
CNC(=O)c1cc2[nH]c(C)nc2c2c1CCC1(Cc3ccccc3C1)N2 [Example 9, N,2-dimethyl-1′,3,3′,6,7,9-hexahydrospiro[imidazo[4,5-h]quinoline-8,2′-indene]-5-carboxamide] | 240 to 241 | 
COCCN(C)C(=O)c1cc2c(nc(C)n2C)c2c1CCC1(Cc3ccccc3C1)N2 [Example 21, N-(2-methoxyethyl)-N,2,3-trimethyl-1′,3,3′,6,7,9-hexahydrospiro[imidazo[4,5-h]quinoline-8,2′-indene]-5-carboxamide] | 160 to 161 | > 80
CS(=O)(=O)O.Cc1nc2c3c(c(C(=O)NC4CC4)cc2n1C)CCC1(Cc2ccccc2C1)N3 [Example 37, N-cyclopropyl-2,3-dimethyl-1′,3,3′,6,7,9-hexahydrospiro[imidazo[4,5-h]quinoline-8,2′-indene]-5-carboxamide methanesulphonate] | 308 to 309 | 
CNC(=O)c1cc2c(nc(C)n2C)c2c1CCC1(Cc3ccccc3C1)N2.CS(=O)(=O)O [Example 28, N,2,3-Trimethyl-1′,3,3′,6,7,9-hexahydrospiro[imidazo[4,5-h]quinoline-8,2′-indene]-5-carboxamide methanesulphonate] | 321 to 324 | 
CNC(=O)c1cc2c(nc(C)n2C)c2c1CCC1(Cc3ccccc3C1)N2 [Example 4, N,2,3-Trimethyl-1′,3,3′,6,7,9-hexahydrospiro[imidazo[4,5-h]quinoline-8,2′-indene]-5-carboxamide] | 237 to 238 | > 80
COCCCNC(=O)c1cc2c(nc(C)n2C)c2c1CCC1(Cc3ccccc3C1)N2 [Example 27, N-(3-methoxypropyl)-2,3-dimethyl-1′,3,3′,6,7,9-hexahydrospiro[imidazo[4,5-h]quinoline-8,2′-indene]-5-carboxamide] | 188 to 189 | > 80
Cc1nc2c3c(c(C(=O)NCCCO)cc2n1C)CCC1(Cc2ccccc2C1)N3 [Example 26, N-(3-hydroxypropyl)-2,3-dimethyl-1′,3,3′,6,7,9-hexahydrospiro[imidazo[4,5-h]quinoline-8,2′-indene]-5-carboxamide] | 237 to 238 | 
Cc1nc2c3c(c(C(=O)N4CC(F)C4)cc2n1C)CCC1(Cc2ccccc2C1)N3 [Example 15, 5-[(3-fluoroazetidin-1-yl)carbonyl]-2,3-dimethyl-1′,3,3′,6,7,9-hexahydrospiro[imidazo[4,5-h]quinoline-8,2′-indene]] | 259 to 260 | > 80
Cc1nc2c3c(c(C(=O)N(C)C[C@H](C)O)cc2n1C)CCC1(Cc2ccccc2C1)N3 [Example 19, N-[(2S)-2-hydroxypropyl]-N,2,3-trimethyl-1′,3,3′,6,7,9-hexahydrospiro[imidazo[4,5-h]-quinoline-8,2′-indene]-5-carboxamide] | 258 to 259 | 
C=CCn1c(C)nc2c3c(c(C(=O)OCC)cc21)CCC1(Cc2ccccc2C1)N3 [Example 3, Ethyl 3-allyl-2-methyl-1′,3,3′,6,7,9-hexahydrospiro[imidazo[4,5-h]quinoline-8,2′-indene]-5-carboxylate] | 150 | 
Cc1nc2c3c(c(C(=O)N(C)C)cc2[nH]1)CCC1(Cc2ccccc2C1)N3 [Example 10, N,N,2-Trimethyl-1′,3,3′,6,7,9-hexahydrospiro[imidazo[4,5-h]quinoline-8,2′-indene]-5-carboxamide] | 183 | 
COCCNC(=O)c1cc2c(nc(C)n2C)c2c1CCC1(Cc3ccccc3C1)N2.O=C(O)/C=C\C(=O)O [Example 33, N-(2-methoxyethyl)-2,3-dimethyl-1′,3,3′,6,7,9-hexahydrospiro[imidazo[4,5-h]quinoline-8,2′-indene]-5-carboxamide maleate] | 191 to 192 | 
Cc1nc2c3c(c(CO)cc2n1C)CCC1(Cc2ccccc2C1)N3 [Example 6, (2,3-Dimethyl-1′,3,3′,6,7,9-hexahydrospiro[imidazo[4,5-h]quinoline-8,2′-inden]-5-yl)-methanol] | 272 to 274 | 
CNC(=O)c1cc2c(nc(C)n2C)c2c1CCC1(Cc3ccccc3C1)N2.Cl | 309 to 311 | 
Cc1nc2c3c(c(C(=O)N(C)C)cc2n1C)CCC1(Cc2ccccc2C1)N3 [Example 11, N,N,2,3-tetramethyl-1′,3,3′,6,7,9-hexahydrospiro[imidazo[4,5-h]quinoline-8,2′-indene]-5-carboxamide] | 178 to 179 | > 80
Cc1nc2c3c(c(C(=O)N4CCCC4)cc2n1C)CCC1(Cc2ccccc2C1)N3 [Example 22, 2,3-dimethyl-5-(pyrrolidin-1-ylcarbonyl)-1′,3,3′,6,7,9-hexahydrospiro[imidazo[4,5-h]-quinoline-8,2′-indene]] | 263 to 264 | > 80
Cc1nc2c3c(c(C(=O)N(C)CCO)cc2n1C)CCC1(Cc2ccccc2C1)N3 [Example 12, N-(2-hydroxyethyl)-N,2,3-trimethyl-1′,3,3′,6,7,9-hexahydrospiro[imidazo[4,5-h]quinoline-8,2′-indene]-5-carboxamide] | 194 to 195 | 
CCNC(=O)c1cc2c(nc(C)n2C)c2c1CCC1(Cc3ccccc3C1)N2 [Example 32, N-ethyl-2,3-dimethyl-1′,3,3′,6,7,9-hexahydrospiro[imidazo[4,5-h]quinoline-8,2′-indene]-5-carboxamide] | 223 to 224 | 
CNC(=O)c1cc2c(nc(C)n2C)c2c1CCC1(Cc3ccccc3C1)N2.O=C(O)CC(=O)O [Example 30, N,2,3-Trimethyl-1′,3,3′,6,7,9-hexahydrospiro[imidazo[4,5-h]quinoline-8,2′-indene]-5-carboxamide malonate] | 261 to 263 | 
Cc1nc2c3c(c(C(=O)NC[C@H](C)O)cc2n1C)CCC1(Cc2ccccc2C1)N3 [Example 20, N-[(2S)-2-hydroxypropyl]-2,3-dimethyl-1′,3,3′,6,7,9-hexahydrospiro[imidazo[4,5-h]-quinoline-8,2′-indene]-5-carboxamide] | 224 to 225 | 
COCCNC(=O)c1cc2c(nc(C)n2C)c2c1CCC1(Cc3ccccc3C1)N2.Cl | 294 to 295 | 
C=CCn1c(C)nc2c3c(c(C(=O)OC)cc21)CCC1(Cc2ccccc2C1)N3 [Example 2, Methyl 3-allyl-2-methyl-1′,3,3′,6,7,9-hexahydrospiro[imidazo[4,5-h]quinoline-8,2′-indene]-5-carboxylate] | 142 to 142.5 | 
COCCNC(=O)c1cc2c(nc(C)n2C)c2c1CCC1(Cc3ccccc3C1)N2.O=C(O)CC(=O)O [Example 34, N-(2-methoxyethyl)-2,3-dimethyl-1′,3,3′,6,7,9-hexahydrospiro[imidazo[4,5-h]quinoline-8,2′-indene]-5-carboxamide malonate] | 176 to 177 | 
